{
  "source": "patent US20150166523A1",
  "about": "“BRANCHED CHAIN ALKYL HETEROAROMATIC RING DERIVATIVE” (TAISHO PHARMACEUTICAL CO., LTD., priority 2012, published 2015)",
  "key": {"[1]": {"target": "T1, human orexin-1 receptor (hOX1R) (Homo sapiens, UniProt O43613)", "T1 construct": "expressed in transfected cells; host or cells: Chinese hamster ovary (CHO) cells", "T1 sequence (O43613 1-425)": "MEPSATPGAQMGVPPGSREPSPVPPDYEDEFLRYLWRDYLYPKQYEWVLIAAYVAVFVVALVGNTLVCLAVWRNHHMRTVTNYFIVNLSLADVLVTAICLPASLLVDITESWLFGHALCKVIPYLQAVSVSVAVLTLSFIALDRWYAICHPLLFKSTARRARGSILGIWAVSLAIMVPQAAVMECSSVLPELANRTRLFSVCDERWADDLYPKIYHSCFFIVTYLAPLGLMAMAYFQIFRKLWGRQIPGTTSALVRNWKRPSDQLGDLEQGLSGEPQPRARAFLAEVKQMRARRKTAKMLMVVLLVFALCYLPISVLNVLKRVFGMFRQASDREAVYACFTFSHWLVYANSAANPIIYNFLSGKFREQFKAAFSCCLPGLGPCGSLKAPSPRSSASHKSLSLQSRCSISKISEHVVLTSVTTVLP", "assay": "Measurement of orexin antagonistic activity (intracellular Ca2+ fluorescence, FDSS) on hOX1R", "format": "cell-based", "conditions": "CHO cells forcibly expressing hOX1R; Fluo-4AM; ligand peptide (substituted human orexin-A) 300 pM; compound preincubated 30 minutes; read-out: IC50 Value OX1", "protocol": "(§1) The antagonistic activities of the test compounds on human orexin-1 receptor (hOX1R) and orexin-2 receptor (hOX2R) were measured by modifying from the method described in literature (Toshikatsu Okumura et al., Biochemical and Biophysical Research Communications, 280, 976-981, 2001). Chinese hamster ovary (CHO) cells forcibly expressing the hOX1R and hOX2R were seeded into a 96 well Black clear bottom plate (Nunc) at 20,000 cells per well, which were cultured in Ham's F-12 medium containing 0.1 mM MEM non-essential amino acids, 0.5 mg/mL G418, 10% fetal bovine serum (all by Invitrogen) for 16 hours under the conditions of 37° C., 5% CO2. After removing the medium, 100 μL of 0.5 μM Fluo-4AM ester (Dojin) in an assay buffer (25 mM HEPES (Dojin), Hank's balanced salt solution (Invitrogen), 0.1% bovine serum albumin, 2.5 mM probenecid, 200 μg/mL Amaranth (all by Sigma-Aldrich), pH 7.4) was added and the cells were incubated for 60 minutes at 37° C., 5% CO2. After removing the assay buffer containing fluo-4AM ester, the test compound was dissolved in dimethyl sulfoxide to be 10 mM and diluted with the assay buffer, 150 μL, of which was added and incubated for 30 minutes.\n(§2) The reaction was measured for the fluorescence intensity of each well every second for 3 minutes using Functional Drug Screening System (FDSS; Hamamatsu Photonics K.K.), and the antagonistic activity was determined using the maximum fluorescence intensity as the indicator of intracellular Ca2+ concentration."}, "[2]": {"target": "T2, orexin-2 receptor (hOX2R) (Homo sapiens, UniProt O43614)", "T2 construct": "expressed in transfected cells; host or cells: Chinese hamster ovary (CHO) cells", "T2 sequence (O43614 1-444)": "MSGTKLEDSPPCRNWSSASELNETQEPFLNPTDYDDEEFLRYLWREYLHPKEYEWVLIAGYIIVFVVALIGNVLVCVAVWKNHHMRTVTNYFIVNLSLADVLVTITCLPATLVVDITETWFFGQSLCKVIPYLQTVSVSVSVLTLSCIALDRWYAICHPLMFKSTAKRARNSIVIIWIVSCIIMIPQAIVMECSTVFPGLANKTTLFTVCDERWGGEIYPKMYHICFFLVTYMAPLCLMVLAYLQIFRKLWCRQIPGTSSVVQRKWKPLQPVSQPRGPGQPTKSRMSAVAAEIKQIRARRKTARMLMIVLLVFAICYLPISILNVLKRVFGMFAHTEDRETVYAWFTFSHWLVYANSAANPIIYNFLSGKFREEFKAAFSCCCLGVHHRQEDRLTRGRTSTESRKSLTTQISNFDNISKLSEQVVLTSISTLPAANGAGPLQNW", "assay": "Measurement of orexin antagonistic activity (intracellular Ca2+ fluorescence, FDSS) on hOX2R", "format": "cell-based", "conditions": "CHO cells forcibly expressing hOX2R; Fluo-4AM; ligand peptide (substituted human orexin-A) 3 nM; compound preincubated 30 minutes; read-out: IC50 Value OX2", "protocol": "as §1, §2"}},
  "data": [
    {"smiles": "Cc1ccc(-n2nccn2)c(C(=O)N(C)[C@H](Cn2ccc(-c3ccc(F)cn3)n2)C(C)C)c1", "note": "[Example 23, N-{(2S)-1-[3-(5-Fluoropyridin-2-yl)-1H-pyrazol-1-yl]-3-methylbutan-2-yl}-N,5-dimethyl-2-(2H-1,2,3-triazol-2-yl) benzamide]", "values": [
      {"measurement": "IC50", "setting": "[1]", "value": 0.134, "unit": "µM"},
      {"measurement": "IC50", "setting": "[2]", "value": 1.89, "unit": "µM"}
    ]},
    {"smiles": "CC[C@@H](Cn1ccc(-c2ccc(F)cn2)n1)N(C)C(=O)c1cc(C)ccc1-n1nccn1", "note": "[Example 24, N-{(2S)-1-[3-(5-Fluoropyridin-2-yl)-1H-pyrazol-1-yl]butan-2-yl}-N,5-dimethyl-2-(2H-1,2,3-triazol-2-yl) benzamide]", "values": [
      {"measurement": "IC50", "setting": "[1]", "value": 0.0098, "unit": "µM"},
      {"measurement": "IC50", "setting": "[2]", "value": 0.0414, "unit": "µM"}
    ]},
    {"smiles": "CCN(C(=O)c1cc(C)ccc1-n1nccn1)[C@@H](C)Cn1cc(-c2ccc(F)cn2)cn1", "note": "[Example 25, N-Ethyl-N-{(2S)-1-[4-(5-fluoropyridin-2-yl)-1H-pyrazol-1-yl]propan-2-yl}5-methyl-2-(2H-1,2,3-triazol-2-yl) benzamide]", "values": [
      {"measurement": "IC50", "setting": "[1]", "value": 0.0007, "unit": "µM"},
      {"measurement": "IC50", "setting": "[2]", "value": 0.0064, "unit": "µM"}
    ]},
    {"smiles": "CCN(C(=O)c1nc(C)ccc1-n1nccn1)[C@@H](C)Cn1cc(-c2ccc(F)cc2)cn1", "note": "[Example 26, N-Ethyl-N-{(2S)-1-[4-(4-fluorophenyl)-1H-pyrazol-1-yl]propan-2-yl}-6-methyl-3-(2H-1,2,3-triazol-2-yl)pyridine-2-carboxamide]", "values": [
      {"measurement": "IC50", "setting": "[1]", "value": 0.0017, "unit": "µM"},
      {"measurement": "IC50", "setting": "[2]", "value": 0.0559, "unit": "µM"}
    ]},
    {"smiles": "CCN(C(=O)c1nc(C)ccc1-n1nccn1)[C@@H](C)Cn1cc(-c2ccc(F)c(F)c2)cn1", "note": "[Example 27, N-{(2S)-1-[4-(3,4-Difluorophenyl)-1H-pyrazol-1-yl]propan-2-yl}-N-ethyl-6-methyl-3-(2H-1,2,3-triazol-2-yl) pyridine-2-carboxamide]", "values": [
      {"measurement": "IC50", "setting": "[1]", "value": 0.0014, "unit": "µM"},
      {"measurement": "IC50", "setting": "[2]", "value": 0.0138, "unit": "µM"}
    ]},
    {"smiles": "Cc1ccc(-n2nccn2)c(C(=O)N(C)[C@@H](C)Cn2cc(-c3ccc(F)cc3)cn2)n1", "note": "[Example 28, N-{(2S)-1-[4-(4-Fluorophenyl)-1H-pyrazol-1-yl]propan-2-yl}-N,6-dimethyl-3-(2H-1,2,3-triazol-2-yl)pyridine-2-carboxamide]", "values": [
      {"measurement": "IC50", "setting": "[1]", "value": 0.0186, "unit": "µM"},
      {"measurement": "IC50", "setting": "[2]", "value": 0.0893, "unit": "µM"}
    ]},
    {"smiles": "Cc1ccc(-n2nccn2)c(C(=O)N(C)[C@@H](C)Cn2cc(-c3ccc(F)c(F)c3)cn2)n1", "note": "[Example 29, N-{(2S)-1-[4-(3,4-Difluorophenyl)-1H-pyrazol-1-yl]propan-2-yl}-N,6-dimethyl-3-(2H-1,2,3-triazol-2-yl)pyridine-2-carboxamide]", "values": [
      {"measurement": "IC50", "setting": "[1]", "value": 0.0101, "unit": "µM"},
      {"measurement": "IC50", "setting": "[2]", "value": 0.0256, "unit": "µM"}
    ]},
    {"smiles": "CCN(C(=O)c1cc(F)ccc1-c1ncccn1)[C@@H](C)Cn1cc(-c2ccc(F)cc2)cn1", "note": "[Example 30, N-Ethyl-5-fluoro-N-{(2S)-1-[4-(4-fluorophenyl)-1H-pyrazol-1-yl]propan-2-yl}-2-(pyrimidin-2-yl)benzamide]", "values": [
      {"measurement": "IC50", "setting": "[1]", "value": 0.0012, "unit": "µM"},
      {"measurement": "IC50", "setting": "[2]", "value": 0.0357, "unit": "µM"}
    ]},
    {"smiles": "CCN(C(=O)c1cc(F)ccc1-c1ncccn1)[C@@H](C)Cn1cc(-c2ccc(F)c(F)c2)cn1", "note": "[Example 31, N-{(2S)-1-[4-(3,4-Difluorophenyl)-1H-pyrazol-1-yl]propan-2-yl}-N-ethyl-5-fluoro-2-(pyrimidin-2-yl)benzamide]", "values": [
      {"measurement": "IC50", "setting": "[1]", "value": 0.001, "unit": "µM"},
      {"measurement": "IC50", "setting": "[2]", "value": 0.0102, "unit": "µM"}
    ]},
    {"smiles": "C[C@@H](Cn1cc(-c2ccc(F)cc2)cn1)N(C)C(=O)c1cc(F)ccc1-c1ncccn1", "note": "[Example 32, 5-Fluoro-N-{(2S)-1-[4-(4-fluorophenyl)-1H-pyrazol-1-yl]propan-2-yl}-N-methyl-2-(pyrimidin-2-yl)benzamide]", "values": [
      {"measurement": "IC50", "setting": "[1]", "value": 0.0207, "unit": "µM"},
      {"measurement": "IC50", "setting": "[2]", "value": 0.0969, "unit": "µM"}
    ]},
    {"smiles": "C[C@@H](Cn1cc(-c2ccc(F)c(F)c2)cn1)N(C)C(=O)c1cc(F)ccc1-c1ncccn1", "note": "[Example 33, N-{(2S)-1-[4-(3,4-Difluorophenyl)-1H-pyrazol-1-yl]propan-2-yl}-5-fluoro-N-methyl-2-(pyrimidin-2-yl)benzamide]", "values": [
      {"measurement": "IC50", "setting": "[1]", "value": 0.0119, "unit": "µM"},
      {"measurement": "IC50", "setting": "[2]", "value": 0.0208, "unit": "µM"}
    ]},
    {"smiles": "CCN(C(=O)c1cc(F)ccc1-c1ncccn1)[C@@H](C)Cn1cc(-c2ccc(F)cn2)cn1", "note": "[Example 34, N-Ethyl-5-fluoro-N-{(2S)-1-[4-(5-fluoropyridin-2-yl)-1H-pyrazol-1-yl]propan-2-yl}-2-(pyrimidin-2-yl)benzamide]", "values": [
      {"measurement": "IC50", "setting": "[1]", "value": 0.0098, "unit": "µM"},
      {"measurement": "IC50", "setting": "[2]", "value": 0.334, "unit": "µM"}
    ]}
  ]
}
